Consider 9 molecules from patent US20050159425A1, “Methods of therapy” (priority 2002, published 2005).

The IC50 is the concentration that gives 50% inhibition.

The test system of series [1] is phosphodiesterase IV b mRNA. Put plainly: phosphodiesterase IV-b mRNA in U937 cells (Taqman). The series is classed as cell-based, human. The settings on record: four hours of incubation; for PDE activity (phosphodiesterase IV b mRNA) after application: PGE 1×10^−6, 19-hydroxy PGE2 5×10^−6, without rolipram. The method, then:
Template was amplified in a Taqman 7700 machine for 40 cycles using FAM/TAMRA dyes on the probe. The Applied Biosystems kit was used to amplify and detect ribosomal (18S)RNA (using VIC/TAMRA dyes) as an internal control in the same reaction tube. After 40 cycles the Ct (related to cycle number at which signal appears) for the FAM and the 18S (VIC) were recorded and […] relative quantitation was achieved using the formula 2^−ΔΔCt where Δ refers to the difference between the FAM and VIC signal related to an standard comparator included in each run.
The mRNA for phosphodiesterase IV-b was measured as described in Example 2 above. mRNA was extracted after four hours of incubation. The concentration of the PGE was 1×10^−6 and that of the 19-hydroxy PGE2 was 5×10^−6. The following primers and Taqman probe were used for quantitation of PDE IV b mRNA.
In general terms: Quantitative PCR measures a nucleic acid by following its amplification.

Series [2] has as its system IL-10 release from U937 cells. Put plainly: IL-10 release from U937 cells (ELISA). The series is classed as cell-based, human. The method, then:
U 937 cells were grown in RPMI (PAA Laboratories) medium with 10% fetal calf serum added (PAA Laboratories). 2×10^6 cells per flask were treated with prostaglandin E2 at 10^−6 Molar or with Rolipram (4×10^−6) for 24 hours. Medium was removed at 20 hours and analysed by ELISA. A capture antibody (Pharmingen) was coated onto 96 well plates and culture medium was added each well. A standard curve was created with recombinant IL-10 protein. After incubation and washing, a biotin labelled monoclonal antibody (Pharmingen) was added and following incubation and washing, peroxidase labelled streptavidin was added. After washing a tetramethyl benzidine substrate was added and colour developed in proportion to IL-10 in the original sample/standard. Colour was read using a plate photometer (Labsystems, Multiskan). Mean concentrations (N=3) in controls with no lipopolysaccharide (LPS) were […] and in the presence of LPS (100 nM) they were 43.9 […].
The effect of PGE1, PGE2, 19 hydroxy PGE1 and 19 hydroxy PGE2 on the stimulation of IL-10 in the presence and absence of rolipram was investigated as described above in Example 2. IL-10 levels were measured using an ELISA assay (R&D Ltd, Oxford). Measurement was performed according to the manufacturer's instructions.

The conditions of series [3]: in vivo; cited from earlier work.
In the next series the test system is type IV PDE. To be noted: cited from earlier work; for IC50: type IV PDE selective inhibitor.
The test system of the next series is PDE. The settings on record: cited from earlier work.
Series [4] concerns monocyte/macrophages stimulated with lipopolysaccharide (LPS). The settings on record: cited from earlier work.

In the case of 19-hydroxy PGE2, the “PDE activity (phosphodiesterase IV b mRNA) after application” value in series [1] is reported as “increase”. The “concentration necessary to achieve similar effects to PGE” value in series [2] (compared with PGE) was “higher concentration”. For the same molecule, in series [2], the “stimulation of IL-10 in the presence of a PDE inhibitor” value was “increased strikingly”.

On to `CCCCC(C)(O)CC=C[C@H]1[C@H](O)CC(=O)[C@@H]1CCCCCCC(=O)OC` (mixture of isomers) [Cytotec, (±) methyl 11α, 16-dihydroxy-16-methyl-9-oxoprost-13-enoate], for which the hypotension result in series [3] is listed as “does not cause hypotension”.

In the case of `COc1ccc(C2CNC(=O)NC2)cc1O[C@H]1C[C@@H]2CC[C@H]1C2` [CP 80 633], in the series with type IV PDE, the “type IV PDE inhibition” value is given as “potent type IV inhibitors”.

`CC(C)Cn1c(=O)n(C)c(=O)c2[nH]cnc21` [IBMX, 3-isobutyl-1-methylxanthine]: the IC50 in the series on PDE (non-specific PDE inhibitor) is 2 to 50 µM.

On to `CCCCC[C@H](O)/C=C/[C@H]1[C@H](O)CC(=O)[C@@H]1C/C=C\CCCC(=O)O` [PGE2, prostaglandin E2], for which the “PDE activity (phosphodiesterase IV b mRNA) after application” value in series [1] was “increase”. Further, the “PDE message levels with a type IV selective PDE inhibitor” value in series [1] (with type IV selective PDE inhibitor (rolipram)) is reported as “increases PDE message levels even further”. In addition, in series [2] (combination with rolipram), the “effect on release of IL-10 in combination with PDE inhibitor rolipram” value is recorded as “synergistic”. Moreover, the “stimulation of IL-10 in the presence of a PDE inhibitor” value in series [2] was “increased strikingly”.

On to `CCCCOc1cc(CC2CNC(=O)N2)ccc1OC` (stereo not shown) [Ro-20-1724, 4-[3-butoxy-4-methoxybenzyl]-2-imidazolidinone], for which the IC50 in the series on type IV PDE is 2 µM.

Consider `Cn1c(=O)c2c(ncn2C)n(C)c1=O` [caffeine], for which the “activity as non-specific PDE inhibitor” value in the series with PDE (compared with theophylline, IBMX and pentoxifylline) is reported as “not as active as the others”.

Take `COc1ccc(C2CNC(=O)C2)cc1OC1CCCC1` (stereo not shown) [rolipram, 4-[3-cyclopentyloxy-4-methoxyphenyl]-2-pyrrolidinone]: the IC50 in the series on type IV PDE was 0.8 µM. Further, in series [4], the IL-10 levels entry is “raise” and the cAMP levels result was “raise”.

As to `Cn1c(=O)c2[nH]cnc2n(C)c1=O` [theophylline], the “times less effective than rolipram” value in the series with type IV PDE (non-selective inhibitor compared with rolipram) is listed as 30 times.
